According to patent US20010034373A1, “Low dose modafinil for enhancement of cognitive function” (priority 2000, published 2001):
Entries after “also recorded” stand apart in the source; their conditions may differ.

Key:
aged male Wistar rats = conditions: rat, in vivo
aged rats = assay: performance of a stabilized delayed alternation task at three retention delays in aged rats; type: in vivo, rat; set-up: dose or concentration left out as unconfirmed; conditions: 15, 30 or 60 modafinil
Protocol: In another study, aged rats were tested for performance of a stabilized delayed alternation task at three retention delays. After stabilized performance in training sessions the rats were entered into a drug testing study with […] of modafinil. A trial started with the presentation of a single lever (left or right). […] After the expiration of the delay, the 2 levers were inserted into the chamber and the animal received a food pellet only if it pressed the lever not previously presented (delayed alternation). Incorrect responses (responses on the same lever) were not reinforced. The 3 delays were randomly presented and equally distributed throughout the session. Correct or incorrect responses were followed by retraction of the two levers. […] The test results indicated the response accuracy of the animal after each retention delay, the simple reaction time in the one lever presentation, and the choice reaction time in the two lever presentation. […] Therefore, modafinil had no effect on improving short term memory at these doses.

adult humans = assay: wakefulness promoting dose extrapolated to adult humans; type: in vivo, human; conditions: extrapolation in adult humans
Protocol: The dosage levels in rats in the studies described herein are reported in mg/kg administered by intraperitoneal injection (i.p.). As described in previous publications, the wakefulness promoting dose of modafinil in rats is highly significant at doses of 100 to 300 mg/kg i.p. (Edgar and Seidel, The Journal of Pharmacology and Experimental Therapeutics, vol. 283, pp 757-769, 1997). The extrapolation in adult humans is a wakefulness promoting dose of 200 mg/day. A dose of 200 mg to an adult human would result in a serum level of about 6.4 μg/ml. […] An effective dose, therefore, is a dose given as a single unit per day in a sustained release formula or given periodically would be that dose that maintains a serum level of from about 0.05 to about 2 μg/ml.

[1] = dose of 200 mg to an adult human; cited from earlier work

Structure (SMILES): NC(=O)C[S+]([O-])C(c1ccccc1)c1ccccc1 (centres unmarked) [Modafinil, 2-(benzhydrylsulfinyl) acetamide]
- choice reaction times (aged male Wistar rats): significantly decreased
- general ability of animals to perform the task (aged male Wistar rats): failed to improve
- number of correct responses (aged male Wistar rats): No effects
- number of correct responses (response accuracy) (aged male Wistar rats): significantly increased
- number of response omissions (aged male Wistar rats): significantly increased
- simple reaction times (aged male Wistar rats): No clear effects; also recorded: tended to increase
- cognitive function in aged rats (aged male Wistar rats; 60 mg/kg): restored cognitive function in the aged rats to the level of the young control rats
- effect on improving short term memory (aged rats): no effect
- number of correct responses at any retention delay (aged rats; retention delays 5, 10 or 20 seconds): did not significantly affect
- wakefulness promoting dose (adult humans): 200 mg/day
- serum level [1]: about 6.4 μg/ml
